Measured values from patent US20240216387A1, “COMPOSITION FOR PREVENTING OR TREATING MUSCULAR DISEASE, COMPRISING OXICAM-BASED COMPOUND” (ANIMUSCURE INC., priority 2021, published 2024).

Key:
[1] = test system: C2Cl2 cells; test: Myoblast differentiation by meloxicam concentration (MHC immunofluorescence and Western blot); assay type: cell-based, mice
Experimental: The C2Cl2 cells were cultured in a general cell culture medium and a differentiation medium, respectively. DMEM supplemented with 10% fetal bovine serum was used as a normal cell culture medium (i.e., a growth medium (GM)), and DMEM containing 2% horse serum was used as a differentiation medium (DM). […] After differentiation, the cells were observed under a microscope, and the cells were disrupted and subjected to Western blot analysis using myogenin and MHC antibodies, which are differentiation markers. The C2Cl2 cells were washed with 1×PBS, fixed with 4% paraformaldehyde at room temperature, and then allowed to react at room temperature after adding a permeabilization buffer. The reaction was performed with PBST (blocking buffer) containing 5% goat serum and PBS containing 0.05% Tween 20 to inhibit non-specific antibody binding. After adding a primary antibody against myosin heavy chain (MHC), the resulting mixture was allowed to react at room temperature. A secondary antibody diluted 1:5000 in a blocking buffer was added and allowed to react at room temperature, and after applying a mounting solution (40% glycerol in DW) and fixing, images were taken under a fluorescence microscope to analyze the results.

[2] = test system: human muscle stem cells; test: Human muscle stem cell differentiation (MHC immunostaining, myotube diameter); assay type: cell-based; settings: muscle stem cells from subject, meloxicam 1 μM, 4 days
Experimental: In addition, human muscle stem […] human skeletal muscle cells (Standard Donors), Cat NO: SK-1111) isolated from the rectus abdominis […] were purchased from MyoSite and used. Human muscle stem […] human skeletal muscle cells (Standard Donors), Cat NO: SK-1111) isolated from the rectus abdominis […] were purchased from MyoSite and used. Human muscle stem cells were seeded in a cell culture medium and cultured for 24 hours. […] The degree of differentiation into muscle fibers was measured through MHC immunostaining, which is a muscle fiber marker. Differentiation was analyzed by muscle fiber diameter.

[3] = test system: 24-month-old mice; test: Muscle mass, muscle type and motor performance in aging mice upon long-term administration; assay type: in vivo
[4] = test system: relatively young mice; test: Grip strength and motor performance in relatively young mice (FIG. 15); assay type: in vivo
Experimental: On day 21 after inducing CTX-injury, a grip strength test for measuring the muscle strength of the meloxicam-administered group and the control group and an experiment for confirming motor performance were conducted. The grip strength test was performed by using a mouse grip strength tester manufactured by BIOSEB.

[5] = test system: 4-month-old normal mice; test: Body weight, intake, grip strength, treadmill test and muscle mass in 4-month-old normal mice upon long-term administration; assay type: in vivo; settings: meloxicam for 2 months
Experimental: In the treadmill test, measurement was performed by using a treadmill device for mice manufactured by Columbus Instruments. Measurements started at a 10% slope and 8 m/min, which was increased 1 m/min every 2 minutes, and continued until the mouse became tired.

**Q.** What does the source list for `Cc1cnc(NC(=O)C2=C(O)c3ccccc3S(=O)(=O)N2C)s1` [meloxicam]?
**A.** MHC expression level (Western blot) ([1]; by meloxicam concentration (1-10,000 nM), FIG. 3): increased; MHC observed in myoblasts (fluorescence microscope) ([1]; high concentration of meloxicam (1-10,000 nM tested), differentiation for 3 days, FIG. 2): clearly observed; myotube diameter ([2]; FIG. 4): increased; MHC expression ([2]; FIG. 5): increased; myotube diameter ([2]; FIG. 5): increased; effect of increasing motor performance ([3]; 7-month-old mice): confirmed; muscle mass in the hindlimb muscles and EDL muscle ([3]; 24-month-old mice, meloxicam for 4 months, FIG. 12): increased; motor performance increase (rotarod apparatus) compared to the control group ([3]; aged mice, FIG. 14): more than 50%; motor performance increase [4]: up to 72.3%; muscle strength increase (grip strength test) compared to the control group ([4]; day 21 after inducing CTX-injury as printed): about 21.9%; body weight change compared with the non-administration group ([5]; FIG. 16A): no significant change; change in intake ([5]; FIG. 16B): no change; muscle strength (grip strength test) ([5]; FIG. 17A): improved; exercise duration (treadmill test) ([5]; compared to the non-administration group, FIG. 17A): improved
